The values below come from publication PMC3382171 (PLoS ONE, 2012).

What all share (assay): biochemical
Common to all, as to design: Invitrogen SelectScreen kinase panel, percent inhibition at 1 uM, ATP at Km
Settings in all cases: read-out: Invitrogen KSS %Inh at 1 µM

One experiment concerns the target ABL1 (Homo sapiens, UniProt P00519). The method, boiled down:
(§1)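 Commercial kinase panel screens run with ATP at the Km for each kinase. Compounds tested at 1 µM final concentration; values are % inhibition of phosphorylation relative to control.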

For another experiment, the target named is AKT2 (PKB beta) (Homo sapiens, UniProt P31751). The method, boiled down: as §1
A further experiment concerns the target CAMK2A (CaMKII alpha) (Homo sapiens, UniProt Q9UQM7). In short, it runs like this:
as §1

For another experiment, the target named is CAMK4 (CaMKIV) (Homo sapiens, UniProt Q16566). In short, it runs like this: as §1
CAMK4 (CaMKIV), sequence (Q16566 whole entry): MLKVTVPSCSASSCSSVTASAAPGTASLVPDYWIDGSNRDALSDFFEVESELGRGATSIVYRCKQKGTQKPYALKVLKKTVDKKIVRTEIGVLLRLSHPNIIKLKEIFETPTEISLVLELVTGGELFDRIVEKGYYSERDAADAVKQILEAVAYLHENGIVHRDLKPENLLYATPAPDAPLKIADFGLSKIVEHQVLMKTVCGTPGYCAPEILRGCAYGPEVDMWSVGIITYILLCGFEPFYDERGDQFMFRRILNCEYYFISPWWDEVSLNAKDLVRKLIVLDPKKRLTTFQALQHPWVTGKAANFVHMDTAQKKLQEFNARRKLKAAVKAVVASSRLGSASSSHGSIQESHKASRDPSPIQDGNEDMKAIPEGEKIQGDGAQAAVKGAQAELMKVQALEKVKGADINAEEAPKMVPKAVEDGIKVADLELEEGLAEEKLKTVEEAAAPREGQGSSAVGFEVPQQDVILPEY
The target of another experiment is T1, CDC42 BPB (MRCKB) (Homo sapiens, UniProt Q9Y5S2).
T1 construct: gene CDC42BPB
The method, boiled down:
as §1

For a further experiment, the target named is CHEK1 (CHK1) (Homo sapiens, UniProt O14757). The method, boiled down: as §1
Another experiment addresses CLK1 (Homo sapiens, UniProt P49759). In short, it runs like this:
as §1

A further experiment concerns the target CSNK1G1 (CK1 gamma 1) (Homo sapiens, UniProt Q9HCP0). The method, boiled down:
as §1

The target of a further experiment is CSNK2A1 (CK2 alpha 1) (Homo sapiens, UniProt P68400). The method, boiled down:
as §1

Another experiment addresses DAPK3 (ZIPK) (Homo sapiens, UniProt O43293). In short, it runs like this: as §1
In a further experiment the target is EEF2K (Homo sapiens, UniProt O00418). The method, boiled down:
as §1

The next experiment addresses EPHA2 (Homo sapiens, UniProt P29317). In short, it runs like this:
as §1

The target in a further experiment is FER (Homo sapiens, UniProt P16591). In short, it runs like this:
as §1

For another experiment, the target named is HCK (Homo sapiens, UniProt P08631). The method, boiled down:
as §1

A further experiment deals with KIT T670I (Homo sapiens, UniProt P10721, T670I). The method, boiled down:
as §1

The target in another experiment is MAPK1/ERK2 (Homo sapiens, UniProt P28482). The method, boiled down: as §1
The next experiment has as its target MAPK14 (p38 alpha)** (Homo sapiens, UniProt Q16539). In short, it runs like this:
as §1

The target of another experiment is NTRK2 (TRKB) (Homo sapiens, UniProt Q16620). The method, boiled down: as §1
NTRK2 (TRKB), sequence (Q16620 whole entry): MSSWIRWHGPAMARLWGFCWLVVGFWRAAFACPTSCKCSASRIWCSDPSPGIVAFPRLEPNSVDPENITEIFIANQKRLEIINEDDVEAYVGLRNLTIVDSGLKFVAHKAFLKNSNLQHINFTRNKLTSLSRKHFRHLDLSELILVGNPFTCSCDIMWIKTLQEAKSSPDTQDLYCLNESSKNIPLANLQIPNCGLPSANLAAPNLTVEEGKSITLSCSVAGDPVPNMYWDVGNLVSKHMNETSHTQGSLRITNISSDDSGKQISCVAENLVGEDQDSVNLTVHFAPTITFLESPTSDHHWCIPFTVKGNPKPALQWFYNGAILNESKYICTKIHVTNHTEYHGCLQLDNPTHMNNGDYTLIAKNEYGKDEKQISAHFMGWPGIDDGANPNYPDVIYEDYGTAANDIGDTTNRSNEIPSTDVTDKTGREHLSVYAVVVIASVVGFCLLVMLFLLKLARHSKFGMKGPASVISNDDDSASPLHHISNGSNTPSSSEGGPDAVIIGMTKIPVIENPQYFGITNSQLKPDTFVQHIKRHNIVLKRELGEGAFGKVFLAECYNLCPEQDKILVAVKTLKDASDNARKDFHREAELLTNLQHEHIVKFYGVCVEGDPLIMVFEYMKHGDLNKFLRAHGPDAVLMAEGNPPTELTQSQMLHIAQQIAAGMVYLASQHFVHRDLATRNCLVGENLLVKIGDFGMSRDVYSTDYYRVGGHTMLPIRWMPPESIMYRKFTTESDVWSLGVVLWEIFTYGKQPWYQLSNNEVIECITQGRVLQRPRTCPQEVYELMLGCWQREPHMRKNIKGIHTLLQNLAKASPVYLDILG
A further experiment deals with T2, PDK1 (Homo sapiens, UniProt O15530).
T2 construct: gene PDPK1
In short, it runs like this:
as §1

For a further experiment, the target named is PLK3 (Homo sapiens, UniProt Q9H4B4). In short, it runs like this: as §1
PLK3, sequence (Q9H4B4 whole entry): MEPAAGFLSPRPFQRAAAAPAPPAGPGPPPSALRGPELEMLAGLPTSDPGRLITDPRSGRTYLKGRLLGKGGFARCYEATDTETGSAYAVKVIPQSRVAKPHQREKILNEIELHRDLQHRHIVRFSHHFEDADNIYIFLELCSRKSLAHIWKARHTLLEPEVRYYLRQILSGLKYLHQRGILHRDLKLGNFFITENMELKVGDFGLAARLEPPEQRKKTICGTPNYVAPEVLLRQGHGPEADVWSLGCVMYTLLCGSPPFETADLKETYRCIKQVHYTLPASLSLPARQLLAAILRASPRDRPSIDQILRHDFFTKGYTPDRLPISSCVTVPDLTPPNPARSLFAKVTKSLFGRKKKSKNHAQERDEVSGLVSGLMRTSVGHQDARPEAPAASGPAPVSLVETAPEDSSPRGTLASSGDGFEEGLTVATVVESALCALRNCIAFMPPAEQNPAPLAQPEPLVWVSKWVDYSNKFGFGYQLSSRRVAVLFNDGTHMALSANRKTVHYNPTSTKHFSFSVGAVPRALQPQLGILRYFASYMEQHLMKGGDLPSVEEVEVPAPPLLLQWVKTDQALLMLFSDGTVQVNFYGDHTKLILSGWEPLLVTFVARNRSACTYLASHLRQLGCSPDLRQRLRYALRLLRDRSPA
The target of a further experiment is PRKCD (PKC delta) (Homo sapiens, UniProt Q05655). The method, boiled down:
as §1

For a further experiment, the target named is PRKCG (PKC gamma) (Homo sapiens, UniProt P05129). The method, boiled down: as §1

CSNK2A1 (CK2 alpha 1), sequence (P68400 whole entry): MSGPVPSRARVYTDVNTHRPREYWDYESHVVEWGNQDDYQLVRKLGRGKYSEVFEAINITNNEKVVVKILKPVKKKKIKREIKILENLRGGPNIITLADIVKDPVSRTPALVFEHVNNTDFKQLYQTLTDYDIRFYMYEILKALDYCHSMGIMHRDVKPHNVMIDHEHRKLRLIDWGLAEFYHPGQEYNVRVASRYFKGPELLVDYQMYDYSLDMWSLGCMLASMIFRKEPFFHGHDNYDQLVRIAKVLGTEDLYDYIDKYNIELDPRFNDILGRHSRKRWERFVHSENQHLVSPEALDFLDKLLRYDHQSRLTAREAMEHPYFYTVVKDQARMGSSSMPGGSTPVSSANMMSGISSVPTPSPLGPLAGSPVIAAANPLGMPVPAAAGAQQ
KIT T670I, sequence (P10721 whole entry T670I): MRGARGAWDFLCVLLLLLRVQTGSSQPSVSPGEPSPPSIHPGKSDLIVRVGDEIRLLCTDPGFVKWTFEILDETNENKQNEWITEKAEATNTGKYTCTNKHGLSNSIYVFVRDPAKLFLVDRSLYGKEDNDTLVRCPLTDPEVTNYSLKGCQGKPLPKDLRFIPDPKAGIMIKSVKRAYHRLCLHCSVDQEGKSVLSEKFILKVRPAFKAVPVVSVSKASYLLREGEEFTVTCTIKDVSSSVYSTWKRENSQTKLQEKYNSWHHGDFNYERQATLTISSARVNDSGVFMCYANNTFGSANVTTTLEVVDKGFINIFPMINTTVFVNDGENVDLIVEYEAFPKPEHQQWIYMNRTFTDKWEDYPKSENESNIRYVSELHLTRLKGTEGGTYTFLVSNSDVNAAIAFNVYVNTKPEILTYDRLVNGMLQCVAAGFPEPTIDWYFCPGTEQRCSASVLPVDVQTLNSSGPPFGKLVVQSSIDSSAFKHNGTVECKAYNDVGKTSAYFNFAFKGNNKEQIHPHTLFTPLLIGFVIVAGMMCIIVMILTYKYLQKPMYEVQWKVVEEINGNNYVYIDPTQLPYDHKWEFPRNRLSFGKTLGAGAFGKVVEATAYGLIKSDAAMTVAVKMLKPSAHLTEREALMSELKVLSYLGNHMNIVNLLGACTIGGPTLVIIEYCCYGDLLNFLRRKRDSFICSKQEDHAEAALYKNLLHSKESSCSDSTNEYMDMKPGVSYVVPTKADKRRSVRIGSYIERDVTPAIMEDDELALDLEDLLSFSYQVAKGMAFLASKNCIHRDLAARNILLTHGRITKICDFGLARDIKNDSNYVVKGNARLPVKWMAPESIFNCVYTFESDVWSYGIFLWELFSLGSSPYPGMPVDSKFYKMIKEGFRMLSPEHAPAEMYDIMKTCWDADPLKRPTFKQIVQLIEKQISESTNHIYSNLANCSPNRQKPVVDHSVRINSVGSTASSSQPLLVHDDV
PRKCD (PKC delta), sequence (Q05655 whole entry): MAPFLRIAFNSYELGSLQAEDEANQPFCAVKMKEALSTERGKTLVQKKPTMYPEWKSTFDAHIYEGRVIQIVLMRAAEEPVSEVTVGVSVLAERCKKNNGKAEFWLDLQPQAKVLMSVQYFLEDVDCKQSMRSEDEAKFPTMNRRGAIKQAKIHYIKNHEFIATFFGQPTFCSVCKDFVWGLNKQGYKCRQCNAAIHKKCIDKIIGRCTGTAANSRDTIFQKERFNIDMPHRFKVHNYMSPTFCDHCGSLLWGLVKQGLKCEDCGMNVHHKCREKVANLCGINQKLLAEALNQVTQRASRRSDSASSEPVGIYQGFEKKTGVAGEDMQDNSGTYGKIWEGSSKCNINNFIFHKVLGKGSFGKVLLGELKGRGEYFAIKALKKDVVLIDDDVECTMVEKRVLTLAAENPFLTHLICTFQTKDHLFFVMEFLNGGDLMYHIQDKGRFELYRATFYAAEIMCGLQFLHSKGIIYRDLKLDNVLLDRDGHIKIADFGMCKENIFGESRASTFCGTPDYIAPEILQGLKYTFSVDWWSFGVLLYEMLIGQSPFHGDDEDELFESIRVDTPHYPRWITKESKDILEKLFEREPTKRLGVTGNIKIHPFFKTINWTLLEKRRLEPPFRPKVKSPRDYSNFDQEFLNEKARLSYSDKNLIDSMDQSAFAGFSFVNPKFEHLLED
MAPK14 (p38 alpha)**, sequence (Q16539 whole entry): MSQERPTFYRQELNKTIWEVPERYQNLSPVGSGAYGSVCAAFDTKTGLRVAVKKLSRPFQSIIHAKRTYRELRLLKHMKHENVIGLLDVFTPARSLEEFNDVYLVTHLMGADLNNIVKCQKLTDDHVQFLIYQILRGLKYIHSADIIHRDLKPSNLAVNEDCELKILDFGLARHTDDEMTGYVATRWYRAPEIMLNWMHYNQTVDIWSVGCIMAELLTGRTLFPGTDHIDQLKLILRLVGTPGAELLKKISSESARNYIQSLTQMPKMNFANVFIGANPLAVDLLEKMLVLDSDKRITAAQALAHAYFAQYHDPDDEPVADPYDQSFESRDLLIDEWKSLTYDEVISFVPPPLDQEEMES
CSNK1G1 (CK1 gamma 1), sequence (Q9HCP0 whole entry): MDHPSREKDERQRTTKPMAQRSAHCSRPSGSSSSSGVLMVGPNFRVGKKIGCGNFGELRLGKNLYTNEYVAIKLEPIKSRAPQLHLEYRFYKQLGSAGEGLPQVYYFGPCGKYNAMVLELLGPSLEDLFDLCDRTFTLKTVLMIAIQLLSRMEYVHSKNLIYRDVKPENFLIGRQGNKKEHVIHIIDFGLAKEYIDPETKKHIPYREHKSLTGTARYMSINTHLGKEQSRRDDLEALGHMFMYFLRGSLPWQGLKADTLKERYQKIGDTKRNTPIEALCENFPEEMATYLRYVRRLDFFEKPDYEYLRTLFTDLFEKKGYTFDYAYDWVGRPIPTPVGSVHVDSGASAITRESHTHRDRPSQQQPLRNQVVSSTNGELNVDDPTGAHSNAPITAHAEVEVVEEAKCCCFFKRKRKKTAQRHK

As to `N#CCCNc1nccc(-c2cn(CC(F)F)nc2-c2cnc3[nH]ccc3c2)n1` [RAFi, PF-04880594], the inhibition at 1 µM at ABL1 was 6%; on AKT2 (PKB beta), 6%; at CAMK2A (CaMKII alpha), -1%; on CAMK4 (CaMKIV), -5%; on CDC42 BPB (MRCKB) it was 21%; on CHEK1 (CHK1) it was 3%. Moreover, the inhibition at 1 µM on CLK1 is 1%; on CSNK1G1 (CK1 gamma 1) it was 0%; on CSNK2A1 (CK2 alpha 1), -1%; at DAPK3 (ZIPK), 5%; at EEF2K, 14%; on EPHA2 it was -2%. The inhibition at 1 µM is -2% on FER; 5% on HCK; 36% at KIT T670I; 14% on MAPK1/ERK2; 93% on MAPK14 (p38 alpha)**; 23% at NTRK2 (TRKB). Also, the inhibition at 1 µM on PDK1 is 13%; at PLK3, 4%; at PRKCD (PKC delta), 6%; at PRKCG (PKC gamma), -15%.
